According to PubChem BioAssay (NCI):
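Values below derive from 48-hour exposures of cells grown in 96-well plates, with endpoints linearly interpolated between the two concentrations bracketing the appropriate inhibition level. GI50: concentration for 50% inhibition of growth. Definition used: TGI = concentration required for complete inhibition of growth.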

Assays:
Assay in all cases: NCI anticancer screen, dose series, 48 h; in the data active = GI50 below about 0.43 µM; inactive = the rest
[1] = tested on: 786-0 renal
[2] = tested on: A498 renal
[3] = tested on: A549 NSCLC
[4] = tested on: ACHN renal
[5] = tested on: BT-549 breast
[6] = tested on: CAKI-1 renal
[7] = tested on: CCRF-CEM leukemia
[8] = tested on: COLO 205 colon
[9] = tested on: DU-145 prostate
[10] = tested on: EKVX NSCLC
[11] = tested on: HCC-2998 colon
[12] = tested on: HCT-116 colon
[13] = tested on: HCT-15 colon
[14] = tested on: HL-60(TB) leukemia
[15] = tested on: HOP-62 NSCLC
[16] = tested on: HOP-92 NSCLC
[17] = tested on: HS 578T breast
[18] = tested on: HT29 colon
[19] = tested on: IGROV1 ovarian
[20] = tested on: K-562 leukemia
[21] = tested on: KM12 colon
[22] = tested on: LOX IMVI melanoma
[23] = tested on: M14 melanoma
[24] = tested on: MALME-3M melanoma
[25] = tested on: MCF7 breast
[26] = tested on: MDA-MB-231 breast
[27] = tested on: MDA-MB-435
[28] = tested on: MDA-MB-468 breast
[29] = tested on: MOLT-4 leukemia
[30] = tested on: NCI-H226 lung
[31] = tested on: NCI-H23 lung
[32] = tested on: NCI-H460 lung
[33] = tested on: NCI-H522 lung
[34] = tested on: OVCAR-3 ovarian
[35] = tested on: OVCAR-4 ovarian
[36] = tested on: OVCAR-5 ovarian
[37] = tested on: OVCAR-8 ovarian
[38] = tested on: PC-3 prostate
[39] = tested on: RPMI-8226 leukemia
[40] = tested on: RXF 393 renal
[41] = tested on: SF-268 CNS
[42] = tested on: SF-295 CNS
[43] = tested on: SF-539 CNS
[44] = tested on: SK-MEL-2 melanoma
[45] = tested on: SK-MEL-28 melanoma
[46] = tested on: SK-MEL-5 melanoma
[47] = tested on: SK-OV-3 ovarian
[48] = tested on: SN12C renal
[49] = tested on: SNB-19 CNS
[50] = tested on: SNB-75 CNS
[51] = tested on: SR leukemia
[52] = tested on: SW-620 colon
[53] = tested on: T-47D breast
[54] = tested on: TK-10 renal
[55] = tested on: U251 CNS
[56] = tested on: UACC-257 melanoma
[57] = tested on: UACC-62 melanoma
[58] = tested on: UO-31 renal

CCOC(=O)C1=C(N)N(c2ccccc2)C2=C(C(=O)CC(C)(C)C2)C1c1ccc(Cl)cc1Cl (stereo unspecified)
25.6 µM: TGI [46]
58 µM: TGI [44]
65.5 µM: TGI [16]
inactive: GI50 [1] 42.4 µM | GI50 [2] 45.4 µM | GI50 [3] 18.8 µM | GI50 [4] 18.3 µM | GI50 [5] 45.8 µM | GI50 [6] 6.82 µM | GI50 [7] 31 µM | GI50 [8] 20.6 µM | GI50 [9] 67.1 µM | GI50 [10] 26.2 µM | GI50 [11] 27.7 µM | GI50 [12] 7.89 µM | GI50 [13] 15.2 µM | GI50 [14] 5.95 µM | GI50 [15] 48.8 µM | GI50 [16] 3.89 µM | GI50 [17] 76.8 µM | GI50 [18] 19.8 µM | GI50 [19] 79.7 µM | GI50 [20] 7.23 µM | GI50 [21] 23.6 µM | GI50 [22] 32.4 µM | GI50 [23] 34.8 µM | GI50 [24] 29.3 µM | GI50 [25] 17.7 µM | GI50 [26] 33.5 µM | GI50 [27] 32.1 µM | GI50 [28] 6.83 µM | GI50 [29] 9.56 µM | GI50 [30] 23.4 µM | GI50 [31] 25.1 µM | GI50 [32] 13.9 µM | GI50 [33] 22.2 µM | GI50 [34] 26.2 µM | GI50 [35] 28.3 µM | GI50 [36] 72.6 µM | GI50 [37] 37.2 µM | GI50 [38] 4.14 µM | GI50 [39] 7.07 µM | GI50 [40] 13.8 µM | GI50 [41] 53.2 µM | GI50 [42] 20.3 µM | GI50 [43] 37.8 µM | GI50 [44] 17 µM | GI50 [45] 66.7 µM | GI50 [46] 12.4 µM | GI50 [47] 33.5 µM | GI50 [48] 30.8 µM | GI50 [49] 29.2 µM | GI50 [50] 53.3 µM | GI50 [51] 14.7 µM | GI50 [52] 29 µM | GI50 [53] 10.4 µM | GI50 [54] 56.3 µM | GI50 [55] 24.6 µM | GI50 [56] 28.8 µM | GI50 [57] 12.6 µM | GI50 [58] 11.5 µM
53.8 µM: TGI [28]
91.3 µM: TGI [8]
> 100 µM: TGI [1] | TGI [2] | TGI [3] | TGI [4] | TGI [5] | TGI [6] | TGI [7] | TGI [9] | TGI [10] | TGI [11] | TGI [12] | TGI [13] | TGI [14] | TGI [15] | TGI [17] | TGI [18] | TGI [19] | TGI [20] | TGI [21] | TGI [22] | TGI [23] | TGI [24] | TGI [25] | TGI [26] | TGI [27] | TGI [29] | TGI [30] | TGI [31] | TGI [32] | TGI [33] | TGI [34] | TGI [35] | TGI [36] | TGI [37] | TGI [38] | TGI [39] | TGI [40] | TGI [41] | TGI [42] | TGI [43] | TGI [45] | TGI [47] | TGI [48] | TGI [49] | TGI [50] | TGI [51] | TGI [52] | TGI [53] | TGI [54] | TGI [55] | TGI [56] | TGI [57] | TGI [58]
